The term IC50 denotes the concentration that gives 50% inhibition.

SMILES strings stand for the structures.

Data on four compounds can be found in US11572373B2, “Maytansinoid-based drug delivery systems” (LADRX CORPORATION, priority 2017, dated 2023).

For series [1], the system named is cancer cell lines (LXFL 529, RKO, SW-620, CAL-27, LXFL 1674L, MDA-MB 468, SK-OV-3, PAXF 1657, MCF7, COLO 205, MDA-MB 231, BT-474, Hep G2). Kind of series: In vitro cytotoxicity in different cell lines using the CellTiter-Blue Cell Viability Assay. The settings on record: geometric mean over the n cell lines tested, 96 h treatment, CellTiter-Blue; read-out: Geomean IC50. The series is classed as cell-based, human. (Alamar Blue is a resazurin reagent that responds to reducing activity.)

Series [2] is described as follows: Stability of maytansinoids and maytansinoid-HSA conjugates in CD1 mouse plasma. The series is classed as in vitro ADME. To be noted: 37° C., 30 μM. The method, then:
(§1) For studying the stability of the maytansinoids as wells as the maytansinoid-HSA conjugates in CD1 and human plasma the compounds were incubated at 37° C. for 24 hours. Remaining free maytansinoid or release of the respective maytansinoid was quantified by LC-MS/MS (or HPLC) at certain time points.
(§2) Pooled CD1 mouse or human plasma (K2EDTA, Innovative research) was centrifuged (1 min at 12,044 g). The supernatant was first filtered through a filter needle (5 μm, sterile, Becton Dickinson) and subsequently through a cellulose acetate membrane (0.45 μm, sterile, Carl Roth). The filtered plasma (1710 μL) was preincubated at 37° C. for 30 min in a heating block. The free maytansinoid or albumin-binding maytansinoid as a 300 μM stock solution in DMSO (190 μL) was added to the preincubated plasma sample to produce a 30 μM solution of the respective maytansinoid or maytansinoid-HSA conjugate. The mixture was allowed to react for 10 min at 37° C. and then at each time point (0, 1, 2, 3, 4, 5, 21, and 24 hours) three samples (70 μL) were taken into a 96-well plate, sealed with a plastic mat, immediately frozen with liquid nitrogen and stored at −20° C. At the end of the experiment, the 96-well plate was thawed at room temperature. The samples (30 μL) were then directly transferred via a multichannel pipette into a 96-well Impact™ protein precipitation plate (Strata®) which was once washed with MeCN (150 μL) and then loaded with the internal standard (120 μL, MeCN containing 5 μg/mL maytansine). The Impact™ precipitation plate was sealed with a silicone mat and shaken for 2 min 420 rpm. The Impact™ precipitation plate was then placed onto a 96-well sample manifold and the filtrate was collected into another 96-well plate by applying mild vacuum. The 96-well plate was sealed with a silicone mat and kept at room temperature until LC-MS/MS quantification. The filtrate was injected into the LC-MS for quantification using the MRM mode. […]

The nature of series [3]: Stability of maytansinoids and maytansinoid-HSA conjugates in human plasma. The series is classed as in vitro ADME. The settings on record: 37° C., 30 μM. The method, then: as §1, §2
Series [4] is described as follows: In vitro cytotoxicity in different cell lines using the CellTiter-Blue Cell Viability Assay. The series is classed as cell-based, human. To be noted: Homo sapiens; geometric mean over the n cell lines tested, 96 h treatment, CellTiter-Blue; read-out: Geomean IC50.

Turning to `COc1cc2cc(c1Cl)N(C)C(=O)C[C@H](OC(=O)[C@H](C)N(C)C(=O)CCSSC)[C@]1(C)O[C@H]1[C@H](C)[C@@H]1C[C@@](O)(NC(=O)O1)[C@H](OC)/C=C/C=C(\C)C2` [DM1-SMe, reference compound], the IC50 in series [1] was found to be 1.3 nM.

Turning to `COc1cc2cc(c1Cl)N(C)C(=O)C[C@H](OC(=O)COc1cccc(C(C)=O)c1)[C@]1(C)O[C@H]1[C@H](C)[C@@H]1C[C@@](O)(NC(=O)O1)[C@H](OC)/C=C/C=C(\C)C2` [Compound 3], the “% of free maytansinoid remaining after 24 h” value in series [2] was 40.8%; in series [3], 69.6%. Besides, the IC50 in series [4] stood at 0.1 nM.

`COc1cc2cc(c1Cl)N(C)C(=O)C[C@H](OC(=O)[C@H](C)N(C)C(=O)CCS)[C@]1(C)O[C@H]1[C@H](C)[C@@H]1C[C@@](O)(NC(=O)O1)[C@H](OC)/C=C/C=C(\C)C2` [DM1, reference compound]: in series [1], the IC50 is 3.22 nM.

Consider `COc1cc2cc(c1Cl)N(C)C(=O)C[C@H](OC(=O)Cc1ccc(C(C)=O)cc1F)[C@]1(C)O[C@H]1[C@H](C)[C@@H]1C[C@@](O)(NC(=O)O1)[C@H](OC)/C=C/C=C(\C)C2` [Compound 2], for which the figures for the “% of free maytansinoid remaining after 24 h” value in series [2] and in series [3] were 71.8% and 74.8%, respectively. In addition, the IC50 in series [4] turned out to be 0.3 nM.
